Test results: the NIST ThermoML archive (doi:10.1021/je101156d)
± gives the expanded uncertainty stated by the source.

Assay: mn = molality of the nth substance listed, in mol/kg
Conditions: 101.3 kPa, Liquid, Dip Cell

CC(CN1c2ccccc2Sc2ccccc21)N(C)C.Cl (stereo not given) [promethazine hydrochloride] + O
electrical conductivity [S/m]
Conditions	313.15 K	323.15 K
m1 = 0.00484	0.05 ± 0.04	0.063 ± 0.04
m1 = 0.00938	0.092 ± 0.04	0.105 ± 0.04
m1 = 0.0136	0.131 ± 0.04	0.144 ± 0.04
m1 = 0.0176	0.167 ± 0.04	0.18 ± 0.04
m1 = 0.0214	0.199 ± 0.04	0.212 ± 0.04
m1 = 0.025	0.229 ± 0.04	0.242 ± 0.04
m1 = 0.0284	0.257 ± 0.04	0.27 ± 0.04
m1 = 0.0316	0.285 ± 0.04	0.298 ± 0.04
m1 = 0.0346	0.309 ± 0.04	0.322 ± 0.04
m1 = 0.0375	0.332 ± 0.04	0.345 ± 0.04
m1 = 0.0402	0.353 ± 0.04	0.366 ± 0.04
m1 = 0.0429	0.376 ± 0.04	0.389 ± 0.04
m1 = 0.0453	0.395 ± 0.04	0.408 ± 0.041
m1 = 0.0477	0.413 ± 0.041	0.426 ± 0.043
m1 = 0.05	0.428 ± 0.043	0.447 ± 0.045
m1 = 0.0522	0.44 ± 0.044	0.457 ± 0.046
m1 = 0.0543	0.45 ± 0.045	0.467 ± 0.047
m1 = 0.0563	0.46 ± 0.046	0.477 ± 0.048
m1 = 0.0582	0.47 ± 0.047	0.487 ± 0.049
m1 = 0.06	0.48 ± 0.048	0.497 ± 0.05
m1 = 0.0618	0.488 ± 0.049	0.505 ± 0.051
m1 = 0.0635	0.496 ± 0.05	0.513 ± 0.051
m1 = 0.0651	0.504 ± 0.05	0.52 ± 0.052
m1 = 0.0667	0.512 ± 0.051	0.527 ± 0.053
m1 = 0.0682	0.52 ± 0.052	0.534 ± 0.053
m1 = 0.0696	0.528 ± 0.053	0.54 ± 0.054
m1 = 0.0711	0.536 ± 0.054	0.546 ± 0.055
m1 = 0.0724	0.542 ± 0.054	0.552 ± 0.055
m1 = 0.0737	0.548 ± 0.055	0.557 ± 0.056
m1 = 0.075	0.554 ± 0.055	0.562 ± 0.056
